Reference: ChEMBL document CHEMBL5058564, “EUbOPEN Chemogenomics Library 2 (Incucyte)” (2022)
*1 amine or outer side, *2 acyl side, *3 side chain or, on linkers, in order; H or OH if unused. Where a SMILES comes first, the peptide text is derived from it. Bridges are numbered along the chain shown (N, C = ends). X1 = O=C(CCC[*:2])[*:1]

Columns and labels:
Assay type in all cases: toxicity, cell-based
[1] = test system: HEK-293T; assay: Incucyte cell viability with HEK293T; conditions: human, 10 µM, compound concentration 10 uM
[2] = test system: Fibroblast; assay: Incucyte cell viability with human fibroblast; conditions: 10 µM, compound concentration 10 uM
[3] = test system: U2OS; assay: Incucyte cell viability with U2OS; conditions: human, 10 µM, compound concentration 10 uM
[4] = 6 h, replicate number 1, timepoint 6 hours
[5] = 12 h, replicate number 1, timepoint 12 hours
[6] = 18 h, replicate number 1, timepoint 18 hours
[7] = 24 h, replicate number 1, timepoint 24 hours
[8] = 6 h, replicate number 2, timepoint 6 hours
[9] = 12 h, replicate number 2, timepoint 12 hours
[10] = 18 h, replicate number 2, timepoint 18 hours
[11] = 24 h, replicate number 2, timepoint 24 hours
[12] = 0 h, replicate number 1, timepoint 0 hours
[13] = 0 h, replicate number 2, timepoint 0 hours
Note: unitless GR value; below 1 slowed growth and below 0 cell loss.

SMILES	Growth Rate [1, 4]	Growth Rate [1, 5]	Growth Rate [1, 6]	Growth Rate [1, 7]	Growth Rate [2, 4]	Growth Rate [2, 5]	Growth Rate [2, 6]	Growth Rate [2, 7]	Growth Rate [3, 12]	Growth Rate [3, 13]	Growth Rate [3, 5]	Growth Rate [3, 6]	Growth Rate [3, 7]	Growth Rate [1, 13]	Growth Rate [2, 12]	Growth Rate [2, 13]	Growth Rate [1, 10]	Growth Rate [1, 11]	Growth Rate [3, 10]	Growth Rate [3, 11]	other results
C[C@H](N)Cn1ccc2cc(F)c(Cl)cc21.O=C(O)/C=C/C(=O)O	0.52	0.55	0.67	0.66	0.43	0.49	0.6	0.6	-0.71	0.24	0.57	0.92	0.91								Growth Rate [2, 8]: 0.72; Growth Rate [2, 9]: 0.81; Growth Rate [2, 10]: 0.9; Growth Rate [2, 11]: 0.79; Growth Rate [3, 4]: 0.36; Growth Rate [3, 8]: 0.68
O=C(O)c1cc2ccccc2c(Cc2c(O)c(C(=O)O)cc3ccccc23)c1O [PAMOIC ACID]						0.52	0.93							0.89	-0.13	0.41					Growth Rate [1, 12]: 0.69; Growth Rate [3, 8]: 0.75
OCCN1CCN(CCCN2c3ccccc3Sc3ccc(Cl)cc32)CC1 [PERPHENAZINE]	0.12	0.59	0.76	0.41	-0.61	-0.48	-0.34	-0.08			0.85		1				0.67	0.76	0.64	0.69	Growth Rate [1, 8]: 0.25; Growth Rate [1, 9]: 0.45; Growth Rate [2, 8]: 0.55; Growth Rate [2, 9]: 0.42; Growth Rate [2, 10]: 0.44; Growth Rate [2, 11]: 0.53; Growth Rate [3, 8]: 0.28; Growth Rate [3, 9]: 0.55
O=c1nc2[nH]c3ccccc3nc-2c(=O)[nH]1 [ALLOXAZINE]		0.97	0.81	0.9	0.04				0.16	-1				0.68	-0.4	0.73			0.95		
CCNC(=O)c1cc2c(-c3cc(C(C)(C)O)ccc3Oc3c(C)cc(F)cc3C)cn(C)c(=O)c2[nH]1 [ABBV-744]			0.82	0.69	0.41	0.68	0.87	0.75					-0.17	0.16	0.23			0.71			Growth Rate [1, 12]: 0.5; Growth Rate [2, 8]: 0.71; Growth Rate [2, 11]: 0.87
CCCn1c(=O)c2[nH]c(C3CCCC3)nc2n(CCC)c1=O [1,3-DIPROPYL-8-CYCLOPENTYLXANTHINE [DPCPX]]	0.57	0.84	0.81	0.72	-0.31	0.03	-0.16	-0.1	-0.53	-1					0.19	0.38			0.95		Growth Rate [1, 12]: 0.58; Growth Rate [1, 8]: 0.79
O=C1NC(NC23CC4CC(CC(C4)C2)C3)=N/C1=C\c1ccc2ncsc2c1		0.28	0.03	0.01					-0.86	-1		0.56	0.62	-0.17	-0.85	0.36	0.09	0.06	0.88	0.7	Growth Rate [1, 12]: -0.13; Growth Rate [1, 9]: 0.24
CN(C)C/C=C/C(=O)Nc1ccc(C(=O)N2CCCC(Nc3ncc(Cl)c(-c4c[nH]c5ccccc45)n3)C2)cc1 (stereo unspecified)	-0.75	-0.58	-0.42	-0.27	-0.96	-0.75	-0.7	-0.55	-0.56	0.12	0.51	0.27	0.09				-0.43	-0.31	0.26	0.13	Growth Rate [1, 8]: -0.93; Growth Rate [1, 9]: -0.66; Growth Rate [2, 8]: -0.55; Growth Rate [2, 9]: -0.33; Growth Rate [2, 10]: -0.1; Growth Rate [2, 11]: -0.06; Growth Rate [3, 4]: 0.53; Growth Rate [3, 9]: 0.63
CN(C)CCCOc1ccc(-c2cc(NCCCn3cccn3)nc(S(C)(=O)=O)n2)cc1	0.9				0.86			0.96	0.2			0.71	0.85			0.56	0.97	0.97	0.82		Growth Rate [3, 4]: 0.22
CC[C@H](C)[C@@H]1NC(=O)[C@H](Cc2ccc(OC)cc2)NC(=O)CCCSC[C@@H](C(=O)N2CCC[C@H]2C(=O)N[C@@H](CC(C)C)C(=O)NCC(N)=O)NC(=O)[C@H](CC(N)=O)NC(=O)[C@H](CCC(N)=O)NC1=O [CARBETOCIN] (Y(Me)IQNCPLG-NH2; linker N-5 via X1)	1	0.63	0.76	0.89			0.85	0.54						-0.11	0.35	0.98	1	0.92			Growth Rate [1, 12]: 0.31
CN1CCN2c3ccccc3Cc3ccccc3C2C1.Cl (stereo unspecified) [MIANSERIN HYDROCHLORIDE]										-1		0.96		0.8					0.94	0.97	Growth Rate [3, 8]: 0.85; Growth Rate [3, 9]: 0.97
CN1CCN2c3ncccc3Cc3ccccc3C2C1 (stereo unspecified) [MIRTAZAPINE]										-0.76	0.81		0.96						0.79	0.85	Growth Rate [1, 8]: 0.53; Growth Rate [3, 9]: 0.97
CCCOc1ccc2[nH]cc(C3=CCNCC3)c2n1.Cl											0.67	0.82	0.92				0.95		0.95	0.93	Growth Rate [1, 8]: 0.51; Growth Rate [1, 9]: 0.75; Growth Rate [3, 4]: 0.81; Growth Rate [3, 9]: 0.93
C[C@H](NC(=O)c1c(C(F)F)nn(C)c1Oc1cccc(C(F)(F)F)c1)c1ccc(C(=O)O)cc1 [PALUPIPRANT]							0.96		-0.16	-1		0.93			0.19	0.08					
CCCn1c(=O)c2[nH]c(-c3ccc(OCC(=O)Nc4ccc(C#N)cc4)cc3)nc2n(CCC)c1=O	0.24	0.85	0.94						0.37	-1				0.64							
